The source of these data is US8450320B2, “Pyrrolopyrazinone inhibitors of kinases” (AbbVie Inc., priority 2010, dated 2013).

Bounds are passed on as bounds.

The assay deals with T1, Cdc7 (BEV coexpressed huCDC7/DBF4) (Homo sapiens, UniProt O00311).
T1 construct: made in house; host or cells: BEV (baculovirus expression vector)
Description: Cdc7 enzyme inhibition assay ([33P]-ATP, biotinylated peptide substrate, FlashPlate). Type of assay: biochemical. Particulars: Ki generated from IC50 assuming ATP-competitive inhibition; 1 μM ATP, apparent ATP Km 0.7 μM. As to the method:
This example describes the assays that may be used to identify compounds having kinase activity.
Cdc7 (BEV coexpressed huCDC7/DBF4) is prepared internally. Cdc7 assays are conducted as follows with final concentrations as listed. In 384-well v-bottom polypropylene plates, 6 μL compound (2% DMSO), is mixed with 6 μL of Cdc7 (2 ug/mL), and Jerini peptide substrate A-All (biotin-C6linker-TPSDSLIYDDGLS) (2 μM), followed by immediate initiation with 6 μL […] (1 μM, 20 mCi/μmol) using a reaction buffer comprising 25 mM HEPES, pH 7.5, 1 mM DTT, 10 mM MgCl2, 100 μM Na3VO4, 0.075 mg/ml Triton X-100. Reactions are quenched after 1 hr by the addition of 90 μL stop buffer (50 mM EDTA, 2M NaCl). 85 μL of the stopped reactions are transferred to 384-well streptavidin-coated plates (FlashPlate Plus, Perkin Elmer), incubated 30 minutes at room temperature and washed 3 times with 0.05% Tween-20/PBS using an ELX-405 automated plate washer (BioTek), and counted on a TopCount Scintillation Plate Reader (Packard). IC50 values are determined via non-linear regression fitting of enzyme inhibition data and corresponding Ki values are generated assuming ATP-competitive (equilibrium) inhibition and using the experimentally determined apparent ATP Km of 0.7 μM (as determined using the above assay condition, but varying ATP).
Table 1 depicts enzyme inhibition data (Ki) for exemplary compounds. In Table 1, “A” represents a Ki of less than 10 nM, “B” represents a Ki of between 10 nM and 100 nM, and “C” represents a Ki of greater than 100 nM.

T1 sequence (O00311 whole entry): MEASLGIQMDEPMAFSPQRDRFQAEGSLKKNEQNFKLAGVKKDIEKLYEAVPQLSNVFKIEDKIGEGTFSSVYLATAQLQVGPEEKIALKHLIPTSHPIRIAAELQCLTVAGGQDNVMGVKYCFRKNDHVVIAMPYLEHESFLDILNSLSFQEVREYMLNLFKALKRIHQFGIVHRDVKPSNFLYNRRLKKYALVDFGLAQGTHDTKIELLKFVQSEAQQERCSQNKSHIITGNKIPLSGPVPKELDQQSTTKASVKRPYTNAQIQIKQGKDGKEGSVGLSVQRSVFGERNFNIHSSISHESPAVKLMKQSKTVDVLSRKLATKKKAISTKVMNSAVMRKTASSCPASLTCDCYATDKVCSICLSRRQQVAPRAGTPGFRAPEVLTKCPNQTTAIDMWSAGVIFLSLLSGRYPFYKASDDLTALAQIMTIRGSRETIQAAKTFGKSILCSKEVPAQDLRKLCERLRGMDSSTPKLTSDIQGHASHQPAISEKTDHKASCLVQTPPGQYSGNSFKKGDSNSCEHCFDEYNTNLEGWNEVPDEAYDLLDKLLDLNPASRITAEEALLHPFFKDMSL
T1 sequence (Q9UBU7 whole entry partner): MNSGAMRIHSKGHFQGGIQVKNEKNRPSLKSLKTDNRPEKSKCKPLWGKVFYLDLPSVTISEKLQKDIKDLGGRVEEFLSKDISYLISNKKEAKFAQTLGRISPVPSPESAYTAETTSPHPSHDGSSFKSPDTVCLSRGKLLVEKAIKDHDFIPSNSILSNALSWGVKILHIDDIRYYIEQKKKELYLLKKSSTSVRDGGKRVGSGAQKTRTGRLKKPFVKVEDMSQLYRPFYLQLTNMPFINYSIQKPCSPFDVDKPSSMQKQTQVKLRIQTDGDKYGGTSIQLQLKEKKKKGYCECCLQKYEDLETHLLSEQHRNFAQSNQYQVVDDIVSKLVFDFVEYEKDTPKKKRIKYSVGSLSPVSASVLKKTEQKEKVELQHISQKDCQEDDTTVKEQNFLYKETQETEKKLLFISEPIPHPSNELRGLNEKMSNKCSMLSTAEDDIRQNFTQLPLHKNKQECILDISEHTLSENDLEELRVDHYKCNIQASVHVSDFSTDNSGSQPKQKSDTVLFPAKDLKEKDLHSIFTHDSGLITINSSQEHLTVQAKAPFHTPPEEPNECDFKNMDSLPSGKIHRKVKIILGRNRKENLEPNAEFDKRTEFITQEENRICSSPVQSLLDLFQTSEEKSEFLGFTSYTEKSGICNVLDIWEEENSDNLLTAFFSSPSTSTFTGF

In the case of `N#Cc1cc(Cc2c[nH]c(=O)c3cc(-c4ccncc4)cn23)ccc1F` [Example 1, 2-fluoro-5-{[1-oxo-7-(pyridin-4-yl)-1,2-dihydropyrrolo[1,2-a]pyrazin-4-yl]methyl}benzonitrile], the Ki was less than 10 nM.
To `N#Cc1cc(Cc2c[nH]c(=O)c3cc(-c4c[nH]c5ncccc45)cn23)ccc1F` [Example 2, 2-fluoro-5-{[1-oxo-7-(1H-pyrrolo[2,3-b]pyridin-3-yl)-1,2-dihydropyrrolo[1,2-a]pyrazin-4-yl]methyl}benzonitrile] belongs less than 10 nM; to `O=C(O)c1cc(Cc2c[nH]c(=O)c3cc(-c4c[nH]c5ncccc45)cn23)ccc1F` [Example 3, 2-fluoro-5-{[1-oxo-7-(1H-pyrrolo[2,3-b]pyridin-3-yl)-1,2-dihydropyrrolo[1,2-a]pyrazin-4-yl]methyl}benzoic acid], less than 10 nM; to `CCOC(=O)c1cccc(Cc2c[nH]c(=O)c3cc(-c4ccncc4)cn23)c1` [Example 4, ethyl 3-{[1-oxo-7-(pyridin-4-yl)-1,2-dihydropyrrolo[1,2-a]pyrazin-4-yl]methyl}benzoate], 10 to 100 nM.
`O=C(O)c1cccc(Cc2c[nH]c(=O)c3cc(-c4c[nH]c5ncccc45)cn23)c1` [Example 5, 3-{[1-oxo-7-(1H-pyrrolo[2,3-b]pyridin-3-yl)-1,2-dihydropyrrolo[1,2-a]pyrazin-4-yl]methyl}benzoic acid]: the Ki is less than 10 nM.
For `CCOC(=O)c1cccc(Cc2c[nH]c(=O)c3cc(-c4c[nH]c5ncccc45)cn23)c1` [Example 6, ethyl 3-{[1-oxo-7-(1H-pyrrolo[2,3-b]pyridin-3-yl)-1,2-dihydropyrrolo[1,2-a]pyrazin-4-yl]methyl}benzoate], the Ki is less than 10 nM.
Regarding `O=C(O)c1cccc(Cc2c[nH]c(=O)c3cc(-c4ccncc4)cn23)c1` [Example 7, 3-{[1-oxo-7-(pyridin-4-yl)-1,2-dihydropyrrolo[1,2-a]pyrazin-4-yl]methyl}benzoic acid], the Ki was in the range of 10 to 100 nM.
For the compound `CCOC(=O)c1cccc(Cc2c[nH]c(=O)c3cc(-c4cccnc4)cn23)c1` [Example 8, ethyl 3-{[1-oxo-7-(pyridin-3-yl)-1,2-dihydropyrrolo[1,2-a]pyrazin-4-yl]methyl}benzoate], the Ki was greater than 100 nM.
Consider `CCOC(=O)c1cccc(Cc2c[nH]c(=O)c3cc(-c4cn[nH]c4)cn23)c1` [Example 9, ethyl 3-{[1-oxo-7-(1H-pyrazol-4-yl)-1,2-dihydropyrrolo[1,2-a]pyrazin-4-yl]methyl}benzoate], for which the Ki is less than 10 nM.
Turning to `NC(=O)c1cccc(Cc2c[nH]c(=O)c3cc(-c4c[nH]c5ncccc45)cn23)c1` [Example 10, 3-{[1-oxo-7-(1H-pyrrolo[2,3-b]pyridin-3-yl)-1,2-dihydropyrrolo[1,2-a]pyrazin-4-yl]methyl}benzamide], the Ki is less than 10 nM.
To `O=C(O)c1cccc(Cc2c[nH]c(=O)c3cc(-c4c[nH]c5nccnc45)cn23)c1` [Example 11, 3-{[1-oxo-7-(5H-pyrrolo[2,3-b]pyrazin-7-yl)-1,2-dihydropyrrolo[1,2-a]pyrazin-4-yl]methyl}benzoic acid] belongs less than 10 nM; to `CCOC(=O)c1cccc(Cc2c[nH]c(=O)c3cc(-c4c[nH]c5nccnc45)cn23)c1` [Example 12, ethyl 3-{[1-oxo-7-(5H-pyrrolo[2,3-b]pyrazin-7-yl)-1,2-dihydropyrrolo[1,2-a]pyrazin-4-yl]methyl}benzoate], less than 10 nM.
To `NC(=O)c1cccc(Cc2c[nH]c(=O)c3cc(-c4cn[nH]c4)cn23)c1` [Example 13, 3-{[1-oxo-7-(1H-pyrazol-4-yl)-1,2-dihydropyrrolo[1,2-a]pyrazin-4-yl]methyl}benzamide] belongs less than 10 nM.
In the case of `O=c1[nH]cc(Cc2cccc([N+](=O)[O-])c2)n2cc(-c3c[nH]c4ncccc34)cc12` [Example 14, 4-(3-nitrobenzyl)-7-(1H-pyrrolo[2,3-b]pyridin-3-yl)pyrrolo[1,2-a]pyrazin-1(2H)-one], the Ki was less than 10 nM.
Regarding `O=C(c1ccc([N+](=O)[O-])cc1)c1c[nH]c(=O)c2cc(-c3c[nH]c4ncccc34)cn12` [Example 15, 4-(4-nitrobenzoyl)-7-(1H-pyrrolo[2,3-b]pyridin-3-yl)pyrrolo[1,2-a]pyrazin-1(2H)-one], the Ki was less than 10 nM.
`N#Cc1ccc(Cc2c[nH]c(=O)c3cc(-c4c[nH]c5ncccc45)cn23)cc1` [Example 16, 4-{[1-oxo-7-(1H-pyrrolo[2,3-b]pyridin-3-yl)-1,2-dihydropyrrolo[1,2-a]pyrazin-4-yl]methyl}benzonitrile]: the Ki was less than 10 nM.
On to `O=C(Nc1ccc(Cc2c[nH]c(=O)c3cc(-c4c[nH]c5ncccc45)cn23)cc1)c1ccncc1` [Example 17, N-(4-{[1-oxo-7-(1H-pyrrolo[2,3-b]pyridin-3-yl)-1,2-dihydropyrrolo[1,2-a]pyrazin-4-yl]methyl}phenyl)isonicotinamide], for which the Ki is less than 10 nM.
Regarding `O=C(Nc1ccc(Cc2c[nH]c(=O)c3cc(-c4c[nH]c5ncccc45)cn23)cc1)C1CCC1` [Example 18, N-(4-{[1-oxo-7-(1H-pyrrolo[2,3-b]pyridin-3-yl)-1,2-dihydropyrrolo[1,2-a]pyrazin-4-yl]methyl}phenyl)cyclobutanecarboxamide], the Ki is less than 10 nM.
In the case of `CN(c1cccc(Cc2c[nH]c(=O)c3cc(-c4c[nH]c5ncccc45)cn23)c1)C1CCC1` [Example 19, 4-{3-[cyclobutyl(methyl)amino]benzyl}-7-(1H-pyrrolo[2,3-b]pyridin-3-yl)pyrrolo[1,2-a]pyrazin-1(2H)-one], the Ki was 10 to 100 nM.
With `O=C(Nc1ccc(Cc2c[nH]c(=O)c3cc(-c4c[nH]c5ncccc45)cn23)cc1)C1CC1` [Example 20, N-(4-{[1-oxo-7-(1H-pyrrolo[2,3-b]pyridin-3-yl)-1,2-dihydropyrrolo[1,2-a]pyrazin-4-yl]methyl}phenyl)cyclopropanecarboxamide], the Ki was less than 10 nM.
Under `CS(=O)(=O)Nc1cccc(Cc2c[nH]c(=O)c3cc(-c4c[nH]c5ncccc45)cn23)c1` [Example 21, N-(3-{[1-oxo-7-(1H-pyrrolo[2,3-b]pyridin-3-yl)-1,2-dihydropyrrolo[1,2-a]pyrazin-4-yl]methyl}phenyl)methanesulfonamide] stands less than 10 nM.
To `Nc1cccc(Cc2c[nH]c(=O)c3cc(-c4c[nH]c5ncccc45)cn23)c1` [Example 22, 4-(3-aminobenzyl)-7-(1H-pyrrolo[2,3-b]pyridin-3-yl)pyrrolo[1,2-a]pyrazin-1(2H)-one] belongs less than 10 nM; to `Nc1ccc(Cc2c[nH]c(=O)c3cc(-c4c[nH]c5ncccc45)cn23)cc1` [Example 23, 4-(4-aminobenzyl)-7-(1H-pyrrolo[2,3-b]pyridin-3-yl)pyrrolo[1,2-a]pyrazin-1(2H)-one], less than 10 nM; to `O=c1[nH]cc(Cc2ccc(NCc3ccccn3)cc2)n2cc(-c3c[nH]c4ncccc34)cc12` [Example 24, 4-{4-[(pyridin-2-ylmethyl)amino]benzyl}-7-(1H-pyrrolo[2,3-b]pyridin-3-yl)pyrrolo[1,2-a]pyrazin-1(2H)-one], less than 10 nM.
Regarding `O=c1[nH]cc(Cc2ccc(CNC3CCC3)cc2)n2cc(-c3c[nH]c4ncccc34)cc12` [Example 25, 4-{4-[(cyclobutylamino)methyl]benzyl}-7-(1H-pyrrolo[2,3-b]pyridin-3-yl)pyrrolo[1,2-a]pyrazin-1(2H)-one], the Ki was less than 10 nM.
